Laboratory results from ChEMBL document CHEMBL1165847, “Urotensin-II receptor modulators as potential drugs” (J Med Chem, 2010).
Where a name gives a salt, the structure may show the parent alone. Calls of active or inactive are those of the source. The calls are words filed in the database; no cut-off is given here.

Experiments:
[1] = biological target: T1, Urotensin-2 receptor (Macaca mulatta, UniProt Q8HYC3); assay: Binding affinity to monkey urotensin 2 receptor
T1 sequence (Q8HYC3 whole entry): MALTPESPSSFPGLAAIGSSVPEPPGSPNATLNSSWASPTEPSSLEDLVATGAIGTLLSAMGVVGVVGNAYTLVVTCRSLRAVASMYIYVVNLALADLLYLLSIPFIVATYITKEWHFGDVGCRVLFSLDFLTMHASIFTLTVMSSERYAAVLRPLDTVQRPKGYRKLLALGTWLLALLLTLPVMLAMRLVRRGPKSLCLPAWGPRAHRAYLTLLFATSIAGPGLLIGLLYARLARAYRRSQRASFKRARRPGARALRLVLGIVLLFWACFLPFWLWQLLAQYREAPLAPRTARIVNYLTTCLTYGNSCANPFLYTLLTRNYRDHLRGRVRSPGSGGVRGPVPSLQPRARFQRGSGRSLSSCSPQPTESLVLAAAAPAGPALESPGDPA

[2] = biological target: T2, Urotensin-2 receptor (Rattus norvegicus, UniProt P49684); assay: Antagonist activity at rat urotensin 2 receptor expressed in CHO cells assessed as calcium mobilization by FLIPR; assay type: functional, cell-based
T2 sequence (P49684 whole entry): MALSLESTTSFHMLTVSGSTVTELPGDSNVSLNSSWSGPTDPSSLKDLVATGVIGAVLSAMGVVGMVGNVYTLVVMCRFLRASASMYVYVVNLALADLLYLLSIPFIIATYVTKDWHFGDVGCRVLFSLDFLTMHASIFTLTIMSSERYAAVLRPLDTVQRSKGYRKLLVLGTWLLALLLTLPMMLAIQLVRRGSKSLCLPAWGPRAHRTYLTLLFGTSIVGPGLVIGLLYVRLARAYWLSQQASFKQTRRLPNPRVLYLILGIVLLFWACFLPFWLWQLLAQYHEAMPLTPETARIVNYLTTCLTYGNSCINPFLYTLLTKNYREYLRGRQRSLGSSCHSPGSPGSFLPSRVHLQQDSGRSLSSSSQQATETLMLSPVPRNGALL

[3] = tested on: Rattus norvegicus; assay: Plasma concentration in rat at 10 mg/kg, iv; assay type: ADME, organism-based; design: dose 10 mg/kg, route intravenous; conditions: in vivo
[4] = biological target: T3, Urotensin-2 receptor (Homo sapiens, UniProt Q9UKP6); assay: Binding affinity to human urotensin 2 receptor
T3 sequence (Q9UKP6 whole entry): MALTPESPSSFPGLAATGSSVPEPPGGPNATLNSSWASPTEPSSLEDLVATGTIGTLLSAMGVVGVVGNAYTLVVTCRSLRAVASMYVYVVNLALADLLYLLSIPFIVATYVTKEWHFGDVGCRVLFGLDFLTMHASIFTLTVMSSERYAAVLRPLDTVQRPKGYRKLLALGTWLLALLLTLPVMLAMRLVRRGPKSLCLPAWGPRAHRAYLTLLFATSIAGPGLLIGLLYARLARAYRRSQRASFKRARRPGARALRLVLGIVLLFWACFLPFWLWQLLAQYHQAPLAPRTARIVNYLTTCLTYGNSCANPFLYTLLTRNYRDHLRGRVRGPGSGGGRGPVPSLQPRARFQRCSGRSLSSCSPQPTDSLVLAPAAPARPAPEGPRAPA

[5] = tested on: Aorta; assay: Vasorelaxation activity against urotensin-2-induced contraction in isolated rat aorta assessed as restoration of renal blood flow at 10 mg/kg/hr, iv; assay type: functional, organism-based
[6] = biological target: T4, Urotensin II receptor (Felis catus, UniProt Q533H1); assay: Binding affinity to cat urotensin 2 receptor
T4 sequence (Q533H1 whole entry): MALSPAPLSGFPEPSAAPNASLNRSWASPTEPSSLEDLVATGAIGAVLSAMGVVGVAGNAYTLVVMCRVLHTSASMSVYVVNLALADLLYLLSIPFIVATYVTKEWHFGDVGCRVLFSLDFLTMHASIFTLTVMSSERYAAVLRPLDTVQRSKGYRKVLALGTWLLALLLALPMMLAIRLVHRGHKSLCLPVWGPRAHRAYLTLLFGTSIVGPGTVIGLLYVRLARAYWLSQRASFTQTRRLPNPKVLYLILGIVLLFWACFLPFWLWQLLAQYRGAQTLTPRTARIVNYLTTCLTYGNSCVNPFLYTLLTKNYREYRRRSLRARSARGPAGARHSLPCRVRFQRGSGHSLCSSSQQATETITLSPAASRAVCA

[7] = biological target: T5, Urotensin-2 receptor (Mus musculus, UniProt Q8VIH9); assay: Binding affinity to mouse urotensin 2 receptor
T5 sequence (Q8VIH9 whole entry): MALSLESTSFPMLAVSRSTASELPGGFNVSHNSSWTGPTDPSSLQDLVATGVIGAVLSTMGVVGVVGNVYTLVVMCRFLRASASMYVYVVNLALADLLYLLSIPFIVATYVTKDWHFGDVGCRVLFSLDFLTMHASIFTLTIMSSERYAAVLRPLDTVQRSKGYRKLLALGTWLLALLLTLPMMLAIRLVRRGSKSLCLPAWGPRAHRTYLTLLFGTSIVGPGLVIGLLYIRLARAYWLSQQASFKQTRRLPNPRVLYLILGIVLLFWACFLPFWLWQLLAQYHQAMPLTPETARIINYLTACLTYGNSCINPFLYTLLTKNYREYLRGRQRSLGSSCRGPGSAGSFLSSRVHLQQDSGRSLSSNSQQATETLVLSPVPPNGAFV

[8] = tested on: Mus musculus; assay: Reduction in atherosclerotic lesion size in Apo-E knockout mouse at 30 mg/kg, po qd for 10 weeks; assay type: functional; design: scale not given: the % may be the effect or the level left
[9] = Oral bioavailability in rat; assay type: ADME, organism-based; conditions: in vivo
[10] = biological target: T2, Urotensin-2 receptor; assay: Binding affinity to rat urotensin 2 receptor
[11] = biological target: T2, Urotensin-2 receptor; assay: Agonist activity at rat urotensin 2 receptor expressed in CHO cells assessed as calcium mobilization at 1000 nM by FLIPR; assay type: functional, cell-based

| Ki [1] [nM] | Ki [2] [nM] | concentration [3] [µM] | IC50 [4] [nM] | Ki [4] [nM] | Ki [6] [nM] | Ki [7] [nM] | bioavailability [9] [%] | Ki [10] [nM] | Ki [11] [nM] | SMILES | Activity [5] | Activity [8] [%] |
| --- | --- | --- | --- | --- | --- | --- | --- | --- | --- | --- | --- | --- |
| 4 | > 1000 | 5 | 3.6 | 5 | > 1000 | > 1000 |  |  |  | Cc1cc(NC(=O)NCCN2CCC(O)(Cc3ccccc3)CC2)c2ccccc2n1 [PALOSURAN SULFATE] | Active |  |
|  |  |  |  |  |  |  | 100 | 121 |  | CN(C)CCOc1cc(NS(=O)(=O)c2c(Cl)cc(C(F)(F)F)cc2Cl)ccc1Cl [SB611812] |  | 64 |
|  |  |  |  | 12 |  |  |  |  | 600 | CC(C)[C@H](NC(=O)c1cc2ccccc2s1)C(=O)N[C@H]1CCN(Cc2ccc(OCCCN(C)C)cc2)C1 |  |  |
